{
  "source": "ChEMBL document CHEMBL3132851",
  "about": "“Achieving improved permeability by hydrogen bond donor modulation in a series of MGAT2 inhibitors” (Medchemcomm, 2013)",
  "data": [
    {"system": "not listed separately", "experiment": "(§1) Apparent permeability of the compound from apical to basolateral side in human Caco2 cells", "details": "Caco-2, Papp", "units": {"Papp A→B": "×10⁻⁶ cm/s"}, "values": [
      {"smiles": "CC1(C)NC(=O)c2cc(S(=O)(=O)Nc3ccc(F)cc3F)cc(C(F)(F)F)c2NC1=O", "Papp A→B": 46},
      {"smiles": "CCC1(C)NC(=O)c2cc(S(=O)(=O)Nc3ccc(C(F)(F)F)cc3F)cc(Cl)c2NC1=O", "note": "(stereo not drawn)", "Papp A→B": 29},
      {"smiles": "CCC1(C)NC(=O)c2cc(S(=O)(=O)Nc3ccc(C(F)(F)F)cc3OC)cc(Cl)c2NC1=O", "note": "(stereo not drawn)", "Papp A→B": 58},
      {"smiles": "CC1(C)NC(=O)c2c(ccc(S(=O)(=O)Nc3ccc(C(F)(F)F)cc3)c2F)NC1=O", "Papp A→B": 4},
      {"smiles": "CC1(C)NC(=O)c2cc(S(=O)(=O)Nc3ccc(C(F)(F)F)cc3)cc(F)c2NC1=O", "Papp A→B": 14},
      {"smiles": "CC1(C)NC(=O)c2cc(S(=O)(=O)Nc3ccc(C(F)(F)F)cc3)ccc2NC1=O", "Papp A→B": 6},
      {"smiles": "CCC1(C)NC(=O)c2cc(S(=O)(=O)Nc3ccc(F)cc3F)cc(OC)c2NC1=O", "note": "(racemic)", "Papp A→B": 22},
      {"smiles": "CCc1cc(S(=O)(=O)Nc2ccc(F)cc2F)cc2c1NC(=O)C(C)(CC)NC2=O", "note": "(racemic)", "Papp A→B": 24},
      {"smiles": "CCC1(C)NC(=O)c2cc(S(=O)(=O)Nc3ccc(C)cc3C#N)cc(Cl)c2NC1=O", "note": "(single isomer, unassigned)", "Papp A→B": 11},
      {"smiles": "CCC1(C)NC(=O)c2cc(S(=O)(=O)Nc3ccc(F)cc3F)cc(C)c2NC1=O", "note": "(single isomer, unassigned; enantiomer 2)", "Papp A→B": 14}
    ]},
    {"system": "Caco-2", "experiment": "as §1", "details": "caco-2", "units": {"Papp": "×10⁻⁶ cm/s"}, "values": [
      {"smiles": "CCC1(C)NC(=O)c2cc(S(=O)(=O)Nc3ccc(F)cc3F)cc(C)c2NC1=O", "note": "(single isomer, unassigned)", "Papp": 9},
      {"smiles": "CCC1(C)NC(=O)c2cc(S(=O)(=O)Nc3ccc(C)cc3C#N)cc(Cl)c2NC1=O", "note": "(single isomer, unassigned; enantiomer 1)", "Papp": 14}
    ]},
    {"target": "2-acylglycerol O-acyltransferase 2 (Homo sapiens, UniProt Q3SYC2)", "sequence (Q3SYC2 whole entry)": "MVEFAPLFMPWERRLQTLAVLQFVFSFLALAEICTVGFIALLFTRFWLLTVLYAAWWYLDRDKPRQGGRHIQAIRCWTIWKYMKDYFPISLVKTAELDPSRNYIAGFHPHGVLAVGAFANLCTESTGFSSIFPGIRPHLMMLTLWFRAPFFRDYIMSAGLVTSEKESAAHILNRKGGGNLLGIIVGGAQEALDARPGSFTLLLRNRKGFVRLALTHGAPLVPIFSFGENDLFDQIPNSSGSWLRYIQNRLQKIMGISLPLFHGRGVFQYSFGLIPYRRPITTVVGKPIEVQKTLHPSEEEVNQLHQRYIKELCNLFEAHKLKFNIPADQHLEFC", "experiment": "Inhibition of human MGAT2 by Rapidfire LCMS assay", "details": "not given", "units": {"IC50": "nM"}, "values": [
      {"smiles": "Cc1cc2c(cc1S(=O)(=O)Nc1ccc(C(F)(F)F)cc1)C(=O)NC(C)(C)C(=O)N2", "IC50": 13400},
      {"smiles": "CC1(C)NC(=O)c2cc(S(=O)(=O)Nc3ccc(F)cc3F)cc(C(F)(F)F)c2NC1=O", "IC50": 30},
      {"smiles": "CCC1(C)NC(=O)c2cc(S(=O)(=O)Nc3ccc(C(F)(F)F)cc3F)cc(Cl)c2NC1=O", "note": "(stereo not drawn)", "IC50": 12},
      {"smiles": "CCC1(C)NC(=O)c2cc(S(=O)(=O)Nc3ccc(C(F)(F)F)cc3OC)cc(Cl)c2NC1=O", "note": "(stereo not drawn)", "IC50": 7},
      {"smiles": "CC1(C)NC(=O)c2c(ccc(S(=O)(=O)Nc3ccc(C(F)(F)F)cc3)c2F)NC1=O", "IC50": 40400},
      {"smiles": "CC1(C)NC(=O)c2cc(S(=O)(=O)Nc3ccc(C(F)(F)F)cc3)cc(F)c2NC1=O", "IC50": 1950},
      {"smiles": "CC1(C)NC(=O)c2cc(S(=O)(=O)Nc3ccc(C(F)(F)F)cc3)c(F)cc2NC1=O", "IC50": 1490},
      {"smiles": "CC1(C)NC(=O)c2cc(S(=O)(=O)Nc3ccc(C(F)(F)F)cc3)ccc2NC1=O", "IC50": 911},
      {"smiles": "CCC1(C)NC(=O)c2cc(S(=O)(=O)Nc3ccc(F)cc3F)cc(OC)c2NC1=O", "note": "(racemic)", "IC50": 10},
      {"smiles": "CCc1cc(S(=O)(=O)Nc2ccc(F)cc2F)cc2c1NC(=O)C(C)(CC)NC2=O", "note": "(racemic)", "IC50": 4},
      {"smiles": "CCC1(C)NC(=O)c2cc(S(=O)(=O)Nc3ccc(F)cc3F)cc(C)c2NC1=O", "note": "(single isomer, unassigned)", "IC50": 7},
      {"smiles": "CCC1(C)NC(=O)c2cc(S(=O)(=O)Nc3ccc(C)cc3C#N)cc(Cl)c2NC1=O", "note": "(single isomer, unassigned)", "IC50": 117},
      {"smiles": "CCC1(C)NC(=O)c2cc(S(=O)(=O)Nc3ccc(C)cc3C#N)cc(Cl)c2NC1=O", "note": "(single isomer, unassigned; enantiomer 1)", "IC50": 23},
      {"smiles": "CCC1(C)NC(=O)c2cc(S(=O)(=O)Nc3ccc(F)cc3F)cc(C)c2NC1=O", "note": "(single isomer, unassigned; enantiomer 2)", "IC50": 62}
    ]},
    {"system": "not listed separately", "experiment": "(§2) Lipophilicity, log D of the compound at pH 7.4 after 30 mins by shake-flask method", "details": "buffer, pH 7.4, 0.5 h; 0.5 h", "values": [
      {"smiles": "CCC1(C)NC(=O)c2cc(S(=O)(=O)Nc3ccc(F)cc3F)cc(C)c2NC1=O", "note": "(single isomer, unassigned)", "logD": 6.5},
      {"smiles": "CCC1(C)NC(=O)c2cc(S(=O)(=O)Nc3ccc(C)cc3C#N)cc(Cl)c2NC1=O", "note": "(single isomer, unassigned; enantiomer 1)", "logD": 0.4}
    ]},
    {"system": "not listed separately", "experiment": "as §2", "details": "buffer, pH 7.4, logD", "values": [
      {"smiles": "CC1(C)NC(=O)c2cc(S(=O)(=O)Nc3ccc(F)cc3F)cc(C(F)(F)F)c2NC1=O", "logD at 0.5 h": 1.9},
      {"smiles": "CCC1(C)NC(=O)c2cc(S(=O)(=O)Nc3ccc(C(F)(F)F)cc3F)cc(Cl)c2NC1=O", "note": "(stereo not drawn)", "logD at 0.5 h": 1.8},
      {"smiles": "CCC1(C)NC(=O)c2cc(S(=O)(=O)Nc3ccc(C(F)(F)F)cc3OC)cc(Cl)c2NC1=O", "note": "(stereo not drawn)", "logD at 0.5 h": 3},
      {"smiles": "CC1(C)NC(=O)c2c(ccc(S(=O)(=O)Nc3ccc(C(F)(F)F)cc3)c2F)NC1=O", "logD at 0.5 h": 2.4},
      {"smiles": "CC1(C)NC(=O)c2cc(S(=O)(=O)Nc3ccc(C(F)(F)F)cc3)cc(F)c2NC1=O", "logD at 0.5 h": 2.3},
      {"smiles": "CC1(C)NC(=O)c2cc(S(=O)(=O)Nc3ccc(C(F)(F)F)cc3)ccc2NC1=O", "logD at 0.5 h": 2.6},
      {"smiles": "CCC1(C)NC(=O)c2cc(S(=O)(=O)Nc3ccc(F)cc3F)cc(OC)c2NC1=O", "note": "(racemic)", "logD at 0.5 h": 1.8},
      {"smiles": "CCc1cc(S(=O)(=O)Nc2ccc(F)cc2F)cc2c1NC(=O)C(C)(CC)NC2=O", "note": "(racemic)", "logD at 0.5 h": 2.1},
      {"smiles": "CCC1(C)NC(=O)c2cc(S(=O)(=O)Nc3ccc(C)cc3C#N)cc(Cl)c2NC1=O", "note": "(single isomer, unassigned)", "logD at 0.5 h": 0.6},
      {"smiles": "CCC1(C)NC(=O)c2cc(S(=O)(=O)Nc3ccc(F)cc3F)cc(C)c2NC1=O", "note": "(single isomer, unassigned; enantiomer 2)", "logD at 0.5 h": 5.4}
    ]}
  ]
}
